Results as given in the NIST ThermoML archive (doi:10.1021/acs.jced.5b01024).
± gives the expanded uncertainty stated by the source.

Test: refractive index (Na D-line) (dimensionless)
Details: 294.15 K; 100 kPa; Liquid; Standard Abbe refractometry
In the case of CCCCO [butan-1-ol], the refractive index is reported as 1.39782 ± 0.00042.
CCCO [propan-1-ol] gave a refractive index of 1.3846 ± 0.00042.
Work on O [water] yielded a refractive index of 1.33285 ± 0.00042.
